Columns and labels:
[1] = First order rate data for the hydrolysis of compound in 0.05 M phosphate buffer pH 7.4 hydrolysis medium; Half-life in minutes; assay type: ADME
[2] = First order rate data for the hydrolysis of compound in 0.1 M hydrochloric acid pH 1 hydrolysis medium; Half-life in minutes; assay type: ADME
[3] = First order rate data for the hydrolysis of compound in dog plasma hydrolysis medium; Half-life in minutes; assay type: ADME, Canis lupus familiaris
[4] = First order rate data for the hydrolysis of compound in rat plasma hydrolysis medium; Half-life in minutes; assay type: ADME
[5] = First order rate data for the hydrolysis of compound in 0.1 M hydrochloric acid pH 1 hydrolysis medium (adinotes no detectable hydrolysis after 48 h); Half-life in minutes; assay type: ADME

half-life [1] | half-life [2] | half-life [3] | half-life [4] | half-life [5] | SMILES
2.23 h | 59.2 h | 0.183 h | 0.0333 h |  | COc1ccc(CCNC(=O)OCc2oc(=O)oc2-c2ccccc2)cc1OC
4.3 h |  |  | 0.183 h | > 50 h | COc1ccc(CCNC(=O)OCc2oc(=O)oc2C)cc1OC
3.45 h | 53 h | 0.233 h | 0.0333 h |  | COc1ccc(-c2oc(=O)oc2COC(=O)NCCc2ccc(OC)c(OC)c2)cc1

Source: ChEMBL document CHEMBL1129662, “Investigation of (Oxodioxolenyl)methyl carbamates as nonchiral bioreversible prodrug moieties for chiral amines” (J Med Chem, 1996)
